The values below are quoted from earlier work in patent publication US10722545B2, “Compound and method for treatment of movement disorders” (priority 2018, dated 2020).

Data set [1] has as its system mutant hamster model of dystonia.
The next data set relates to mice. Conditions: oral administration.
The conditions of data set [2]: cyclic voltammetry and fenton reaction-based system.
In data set [3] the test system is rat cortical neuron cultures. Conditions: for glutamate toxicity: isolated or synthetic cannabinoid; for NMDA, AMPA and kainate receptor mediated neurotoxicity: rat cortical neuron cultures, not affected by CB receptor antagonist.
A further data set has as its system neurons. The settings on record: neuronal cultures.

The structures appear in SMILES notation.

`Cc1c(C(=O)c2cccc3ccccc23)c2cccc3c2n1[C@H](CN1CCOCC1)CO3` [WIN55,212-2]: in data set [1], the antidystonic effects result was “produces antidystonic effects”.
Turning to `CCCCCc1cc(O)c2c(c1)OC(C)(C)[C@@H]1CCC(C)=C[C@@H]21` (relative stereo) [THC, (-)-Δ9-trans-tetrahydrocannabinol], in the data set on mice, the “inhibition of phenyl-p-benzoquinone-induced writhing” value was “least effective”. Besides, the antioxidant activity result in data set [2] was “potent antioxidants”. Also, in data set [3], the glutamate toxicity entry is “prevented to some extent”; the “NMDA, AMPA and kainate receptor mediated neurotoxicity” value was “reduced”.
As to `CCCCCc1cc(O)c2c(c1)OC(C)(C)c1ccc(C)cc1-2` [CBN, cannabinol], the “inhibition of phenyl-p-benzoquinone-induced writhing” value in the data set on mice was “least effective”.
In the case of `C=C(C)[C@@H]1CCC(C)=C[C@H]1c1c(O)cc(CCCCC)cc1O` [CBD, cannabidiol], the “inhibition of phenyl-p-benzoquinone-induced writhing” value with mice was “most effective”. Moreover, the antioxidant activity result in data set [2] is on record as “potent antioxidants”. The “hydroperoxide toxicity in neurons” value with neurons was “reduce hydroperoxide toxicity”. Moreover, the “protective capacity against glutamate toxicity, head to head with other antioxidants” value in data set [3] (compared with alpha-tocopherol and ascorbate) was “superior to both alpha-tocopherol and ascorbate”. In data set [3], the glutamate toxicity result is listed as “prevented to some extent”; the “NMDA, AMPA and kainate receptor mediated neurotoxicity” value was “reduced”.
